The results in this text go back to patent US8722868B2, “Glycosyltransferase, novel glycosyltransferase gene, and novel sugar donor compound” (National University Corporation Tokyo University of …, priority 2009, dated 2014).

The target of this test is T1, glycosyltransferase in crude enzyme liquid from pink carnation petals (Dianthus caryophyllus, UniProt E3W9M2).
T1 construct: Thus, a crude enzyme liquid was obtained; from tissue; host or cells: pink petals of carnation, variety Beam Cherry (ammonium sulfate precipitate, desalted)
T1 sequence (E3W9M2 31-502): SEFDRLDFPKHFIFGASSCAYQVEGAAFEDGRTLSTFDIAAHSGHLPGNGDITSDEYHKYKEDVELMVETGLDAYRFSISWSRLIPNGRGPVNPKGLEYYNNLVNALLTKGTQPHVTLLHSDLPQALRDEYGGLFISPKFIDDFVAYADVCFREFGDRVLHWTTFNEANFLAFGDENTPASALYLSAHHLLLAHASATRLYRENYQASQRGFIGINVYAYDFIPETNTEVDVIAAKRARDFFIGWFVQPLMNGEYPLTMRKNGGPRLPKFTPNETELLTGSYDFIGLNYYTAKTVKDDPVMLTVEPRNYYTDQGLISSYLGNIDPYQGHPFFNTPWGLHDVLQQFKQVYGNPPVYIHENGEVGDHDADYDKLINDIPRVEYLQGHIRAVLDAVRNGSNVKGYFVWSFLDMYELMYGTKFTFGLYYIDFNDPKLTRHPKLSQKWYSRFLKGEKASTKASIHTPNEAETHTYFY
The experiment in a line: Detection of glycosyl transfer reaction with carnation petal crude enzyme liquid (HPLC). It is filed as biochemical. The conditions noted are these: pH 5.6, 30° C. Here is the method: Pink petals of a carnation (variety: “Beam Cherry”) were ground into a powder in liquid nitrogen using a mortar and a pestle. The obtained powder was added in a stepwise manner to a 50 mM potassium phosphate buffer (pH 7.2) and dissolved therein via stirring to prevent freezing. Then, an insoluble fraction was removed by centrifugation. A saturate ammonium sulfate solution was added to the obtained supernatant so as to result in a concentration of 80%. The mixture was left on ice for 5 minutes. The precipitated protein was collected by centrifugation. A 10 mM potassium phosphate buffer was added thereto for complete dissolution. The obtained solution was applied to a Sephadex G-25 gelfiltration support (GE Healthcare) for desalting. Thus, a crude enzyme liquid was obtained. […]
Glycosyltransferase activity was examined using a crude enzyme extracted from pink petals of a carnation (variety: “Beam Cherry”) or petals of a delphinium (variety: “marine blue”) in the manner described in Example 1. […] Then, the supernatant was analyzed by HPLC. […]

For `COc1cc(C(=O)OC2OC(CO)C(O)C(O)C2O)ccc1O` (centres unmarked), the “Function as sugar donor (generation of cyanidin 3,5-O-β-diglucoside from cyanidin 3-glucoside)” value (carnation crude enzyme liquid, 40 minutes) is “functions as a sugar donor”.

For `O=C(OC1OC(CO)C(O)C(O)C1O)c1ccc(O)cc1` (stereo not drawn) [1-O-β-p-hydroxybenzoyl glucose], under “carnation crude enzyme, cyanidin 3-O-β-glucoside 200 μM, sugar donor 1 mM, 15 minutes”, the “Recognition as sugar donor by carnation glycosylation enzyme” value is recorded as “recognize 1-O-β-p-hydroxybenzoyl glucose as a sugar donor”.
